Experimental data: patent publication US20230174488A1 (priority 2020, published 2023)
Read-outs that look alike come from different tables or passages of the source.

Target: SARS-CoV-2 M^PRO (Severe acute respiratory syndrome coronavirus 2, UniProt P0DTD1)
Assay: biochemical
Assay type: biochemical
Settings: In vitro potency data, 30 min pre-incubation, 25 nM M^pro, 25 µM substrate, read-out: IC50

## Cc1cc(F)cc(F)c1NC(=O)C(c1cncnc1)N(C(=O)CCl)c1ccc(-c2cnco2)cc1 (stereo not drawn) [INSCoV-600N]
  IC50: 1060 nM

## O=C(NC1CCC(F)(F)CC1)C(c1cnccn1)N(C(=O)CCl)c1ccc(-c2cnco2)cc1 (stereo not drawn) [INSCoV-501S, 2-Chloro-N-(2-((4,4-Difluorocyclohexyl)Amino)-2-Oxo-1-(Pyrazin-2-yl)Ethyl)-N-(4-(Oxazol-5-yl)Phenyl)Acetamide]
  IC50: 240 nM

## N#Cc1cc(OC(F)(F)F)ccc1N(C(=O)CCl)C(C(=O)NC1CCC(F)(F)CC1)c1cncnc1 (single isomer, unassigned) [INSCoV-517A(1A), 2-Chloro-N-(2-cyano-4-(trifluoromethoxy)phenyl)-N-(2-((4,4-difluorocyclohexyl)amino)-2-oxo-1-(pyrimidin-5-yl)ethyl)acetamide]
  IC50: 30 nM

## O=C(NC1CCC(F)(F)CC1)[C@H](c1cnccn1)N(C(=O)CCl)c1ccc(-c2ccno2)cc1 (racemic) [INSCoV-601H, 2-Chloro-N-(2-((4,4-difluorocyclohexyl)amino)-2-oxo-1-(pyrazin-2-yl)ethyl)-N-(4-(isoxazol-5-yl)phenyl)acetamide]
  IC50: 100 nM

## O=C(NC1CCOC1)[C@H](c1cncnc1)N(C(=O)CCl)c1ccc(-c2cncs2)cc1 (stereo partly drawn) [INSCoV-601R(1B)]
Listed as INSCoV-601R(lB)
  IC50: 440 nM

## O=C(NC1CCC(F)(F)CC1)C(c1cncnc1)N(C(=O)CCl)c1ccc(-c2ccno2)cc1 (stereo not drawn) [INSCoV-600J, 2-Chloro-N-(2-((4,4-difluorocyclohexyl)amino)-2-oxo-1-(pyrimidin-5-yl)ethyl)-N-(4-(isoxazol-5-yl)phenyl)acetamide]
  IC50: 110 nM

## O=C(NC1CCC(F)(F)CC1)[C@@H](c1cncnc1)N(C(=O)[C@H](F)Cl)c1ccc(-c2ccno2)cc1 (single isomer, unassigned) [INSCoV-614A(2B), 2-Chloro-N-(2-((4,4-difluorocyclohexyl)amino)-2-oxo-1-(pyrimidin-5-yl)ethyl)-2-fluoro-N-(4-(isoxazol-5-yl)phenyl)acetamide]
  IC50: 9110 nM

## O=C(NC1CCC(F)(F)CC1)C(c1cnccn1)N(C(=O)CCl)c1ccc(-c2cncs2)cc1 (single isomer, unassigned) [INSCoV-601G(1), 2-Chloro-N-(2-((4,4-difluorocyclohexyl)amino)-2-oxo-1-(pyrazin-2-yl)ethyl)-N-(4-(thiazol-5-yl)phenyl)acetamide]
  IC50: 60 nM

## CC(C)(C)NC(=O)C(c1cccnc1)N(C(=O)CCl)c1ccc(C(C)(C)C)cc1 (stereo not drawn) [INSCoV-534, N-(Tert-Butyl)-2-(N-(4-(Tert-Butyl)Phenyl)-2-Chloroacetamido)-2-(Pyridin-3-yl)Acetamide]
  IC50: 1280 nM

## CC(C)(C)c1ccc(N(C(=O)CCl)C(C(=O)NC2CCCCC2)c2cccnc2)cc1 (stereo not drawn) [INSCoV-110A, 2-(4-tert-butyl-N-(2-chloroacetyl)anilino)-N-cyclohexyl-2-(3-pyridyl)acetamide]
  IC50: 1140 nM

## Cc1ccc(CN(C(=O)CCl)C(C(=O)NC2CCCCC2)c2cccnc2)cc1 (stereo not drawn) [INSCoV-502]
  IC50: 4820 nM

## O=C(NC1CCC(F)(F)CC1)C(c1cnccn1)N(C(=O)CCl)c1ccc(-c2ccns2)cc1 (single isomer, unassigned) [INSCoV-601I(2), 2-chloro-N-(2-((4,4-difluorocyclohexyl)amino)-2-oxo-1-(pyrazin-2-yl)ethyl)-N-(4-(isothiazol-5-yl)phenyl)acetamide]
  IC50: 210 nM

## CC(C(=O)NC1CCC(F)(F)CC1)(c1cnccn1)N(C(=O)CCl)c1ccc(-c2ccns2)cc1 (single isomer, unassigned) [INSCoV-601N(2), 2-(2-Chloro-N-(4-(isothiazol-5-yl)phenyl)acetamido)-N-(4,4-difluorocyclohexyl)-2-(pyrazin-2-yl)propanamide]
  IC50: 3490 nM

## Cc1ccc(CCN(C(=O)CCl)C(C(=O)NC2CCCCC2)c2cccnc2)cc1 (stereo not drawn) [INSCoV-503C]
  IC50: 1380 nM

## O=C(N[C@H]1CCC(F)(F)C1)C(c1cncnc1)N(C(=O)CCl)c1ccc(-c2cncs2)cc1 (single isomer, unassigned) [INSCoV-601S(1B)]
  IC50: 980 nM

## O=C(NC1CCCCC1)C(c1cncnc1)N(C(=O)CCl)c1ccc(-c2cnco2)cc1 (stereo not drawn) [INSCoV-501A, 2-Chloro-N-(2-(Cyclohexylamino)-2-oxo-1-(Pyrimidin-5-yl)Ethyl)-N-(4-(Oxazol-5-yl)Phenyl)Acetamide]
  IC50: 290 nM

## CC(C)(C)c1ccc(N(C(=O)CCl)C(C(=O)NC2CCCCC2)c2ccnnc2)cc1 (stereo not drawn) [INSCoV-537, N-(4-(Tert-Butyl)Phenyl)-2-Chloro-N-(2-(Cyclohexylamino)-2-Oxo-1-(Pyridazin-4-yl)Ethyl)Acetamide]
  IC50: 420 nM

## O=C(NC1CC2(COC2)C1)C(c1cncnc1)N(C(=O)CCl)c1ccc(-c2cnco2)cc1 (stereo not drawn) [INSCoV-600G]
  IC50: 990 nM

## O=C(NC1CCCCC1)C(c1cccnc1)N(C(=O)CCl)c1ccc(Br)cc1F (stereo not drawn) [INSCoV-507]
  IC50: 2130 nM

## O=C(NC1CCC(F)(F)CC1)C(c1cncnc1)N(C(=O)C1CO1)c1ccc(-c2cnco2)cc1 (stereo not drawn) [INSCoV-600R]
  IC50: 12800 nM

## O=C(NC1CCCCC1)C(c1cccnc1)N(CCc1cccc(Cl)c1)C(=O)CCl (stereo not drawn) [INSCoV-503E]
  IC50: 660 nM

## O=C(NC1CCCCC1)C(c1cccnc1)N(CCc1ccc(Cl)cc1)C(=O)CCl (stereo not drawn) [INSCoV-503F]
  IC50: 940 nM

## O=C(NC1CCOCC1)C(c1cnccn1)N(C(=O)CCl)c1ccc(-c2cnco2)cc1 (stereo not drawn) [INSCoV-600A(3), 2-Chloro-N-(4-(Oxazol-5-yl)Phenyl)-N-(2-oxo-1-(Pyrazin-2-yl)-2-((Tetrahydro-2H-Pyran-4-yl)Amino)Ethyl)Acetamide]
  IC50: 410 nM

## O=C(NC1CCC(F)(F)CC1)C(c1cncnc1)N(C(=O)[C@H]1CO1)c1ccc(-c2cnco2)cc1 (stereo partly drawn) [INSCoV-600R(1)]
  IC50: 19900 nM

## O=C(NC1CCCCC1)C(c1cccnc1)N(CCc1ccccc1)C(=O)CCl (stereo not drawn) [INSCoV-503]
  IC50: 980 nM

## O=C(NC1CCC(F)(F)CC1)[C@H](c1cncnc1)N(C(=O)[C@H](F)Cl)c1ccc(-c2cncs2)cc1 (single isomer, unassigned) [INSCoV-614(2B), 2-Chloro-N-(2-((4,4-difluorocyclohexyl)amino)-2-oxo-1-(pyrimidin-5-yl)ethyl)-2-fluoro-N-(4-(thiazol-5-yl)phenyl)acetamide]
  IC50: 1700 nM

## O=C(NC1CCS(=O)(=O)CC1)C(c1cncnc1)N(CCc1cccc(F)c1)C(=O)CCl (stereo not drawn) [INSCoV-558A, 2-Chloro-N-(2-((1,1-Dioxidotetrahydro-2H-Thiopyran-4-yl)Amino)-2-Oxo-1-(Pyrimidin-5-yl)Ethyl)-N-(3-Fluorophenethyl)Acetamide]
  IC50: 470 nM

## O=C(N[C@@H]1CCOC1)C(c1cncnc1)N(C(=O)CCl)c1ccc(-c2cnco2)cc1 (stereo partly drawn) [INSCoV-600C(2)]
  IC50: 200 nM

## O=C(NC1CCC(F)(F)CC1)[C@H](c1cncnc1)N(C(=O)CCl)c1ccc(-c2ccns2)cc1
  IC50: 190 nM

## O=C(NCCc1ccccc1)C(c1cncnc1)N(C(=O)CCl)c1ccc(-c2cnco2)cc1 (stereo not drawn) [INSCoV-501E]
  IC50: 600 nM

## O=C(NC1CCOCC1)C(c1cccnc1)N(C(=O)CCl)c1ccc(-c2cnco2)cc1 (stereo not drawn) [INSCoV-600A(1), 2-Chloro-N-(4-(Oxazol-5-yl)Phenyl)-N-(2-Oxo-1-(Pyridin-3-yl)-2-((Tetrahydro-2H-Pyran-4-yl)Amino)Ethyl)Acetamide]
  IC50: 840 nM

## O=C(NC1CCC(F)(F)CC1)C(c1cncnc1)N(CCc1cccc(F)c1)C(=O)C1CO1 (stereo not drawn) [INSCoV-600Q]
  IC50: 6980 nM

## O=C(NC1CCC(F)(F)C1)C(c1cncnc1)N(C(=O)CCl)c1ccc(-c2cnco2)cc1 (stereo not drawn) [INSCoV-600B, 2-(N-(2-chloroacetyl)-4-oxazol-5-yl-anilino)-N-(3,3-difluorocyclopentyl)-2-pyrimidin-5-yl-acetamide]
  IC50: 290 nM

## O=C(NC1CCC(F)(F)C1)C(c1cncnc1)N(C(=O)CCl)c1ccc(-c2cncs2)cc1 (stereo not drawn) [INSCoV-601S]
  IC50: 90 nM

## O=C(N[C@H]1CCC(F)(F)C1)C(c1cncnc1)N(C(=O)CCl)c1ccc(-c2cnco2)cc1 (stereo partly drawn) [INSCoV-600B(2)]
  IC50: 190 nM

## CNC(=O)c1cc(C)c(NC(=O)C(c2cncnc2)N(C(=O)CCl)c2ccc(-c3cnco3)cc2)c(Cl)c1 (stereo not drawn) [INSCoV-6000, 3-chloro-4-[[2-(N-(2-chloroacetyl)-4-oxazol-5-yl-anilino)-2-pyrimidin-5-yl-acetyl]amino]-N,5-dimethyl-benzamide]
  IC50: 1090 nM

## CN(C)C(=O)C1CCCC(NC(=O)C(c2cncnc2)N(C(=O)CCl)c2ccc(-c3cnco3)cc2)C1 (stereo not drawn) [INSCoV-601CA]
  IC50: 1150 nM

## O=C(NC1CC(F)(F)C1)C(c1cncnc1)N(C(=O)CCl)c1ccc(-c2cnco2)cc1 (stereo not drawn) [INSCoV-600D]
  IC50: 520 nM

## CC(C)(C)c1ccc(N(C(=O)CCl)C(C(=O)NC2CCCCC2)c2c[nH]c3ncccc23)cc1 (stereo not drawn) [INSCoV-549]
  IC50: 2490 nM

## N#Cc1cc(OC(F)(F)F)ccc1N(C(=O)[C@H](F)Cl)[C@@H](C(=O)NC1CCC(F)(F)CC1)c1cncnc1 (single isomer, unassigned) [INSCoV-517C(4), 2-Chloro-N-(2-cyano-4-(trifluoromethoxy)phenyl)-N-(2-((4,4-difluorocyclohexyl)amino)-2-oxo-1-(pyrimidin-5-yl)ethyl)-2-fluoroacetamide]
  IC50: > 25000 nM

## O=C(NC1CCC(F)(F)CC1)C(c1cncnc1)N(C(=O)[C@@H]1CO1)c1ccc(-c2cnco2)cc1 (stereo partly drawn) [INSCoV-600R(2)]
  IC50: 6450 nM

## O=C(NC1CCC(F)(F)CC1)[C@@H](c1cncnc1)N(C(=O)CCl)c1ccc(-c2ccccc2)cc1 [INSCoV-601L]
  IC50: 300 nM

## O=C(NC1CCC(F)(F)CC1)[C@@H](c1cncnc1)N(CCc1cccc(F)c1)C(=O)C1CO1 (stereo partly drawn) [INSCoV-600Q(2)]
  IC50: 2220 nM

## N#Cc1cc(OC(F)(F)F)ccc1N(C(=O)CCl)C(C(=O)NC1CCC(F)(F)CC1)c1cncnc1 (single isomer, unassigned) [INSCoV-517A(1B), 2-Chloro-N-(2-cyano-4-(trifluoromethoxy)phenyl)-N-(2-((4,4-difluorocyclohexyl)amino)-2-oxo-1-(pyrimidin-5-yl)ethyl)acetamide]
  IC50: 3250 nM

## O=C(NC1CCCCC1)C(c1cccnc1)N(CCc1ccc(F)cc1)C(=O)CCl (stereo not drawn) [INSCoV-559, 2-Chloro-N-(2-(Cyclohexylamino)-2-Oxo-1-(Pyridin-3-yl)Ethyl)-N-(4-Fluorophenethyl)Acetamide]
  IC50: 1080 nM
